Values of other authors in US12396980B2, “Melatonin for preventing and treating radiation cystitis” (RepoCeuticals A/S, priority 2015, dated 2025).
Blank lines part the entries; values can stand above or below the compound they belong to.

Columns and labels:
radiation cystitis = details: human patients
rat urinary bladder = details: intraperitoneal
lymphocytes = details: prior oral dosage; human beings

Compound: C[S+](C)[O-] [DMSO, Dimethyl sulfoxide]
therapeutic effect on radiation cystitis (radiation cystitis): some therapeutic effect

water solubility: almost water-insoluble
Compound: COC1=C(OC)C(=O)C(C/C=C(\C)CC/C=C(\C)CC/C=C(\C)CC/C=C(\C)CC/C=C(\C)CC/C=C(\C)CC/C=C(\C)CC/C=C(\C)CC/C=C(\C)CCC=C(C)C)=C(C)C1=O [coenzyme Q10]

Compound: COc1ccc2[nH]cc(CCNC(C)=O)c2c1 [melatonin, /V-acetyl-5-methoxytryptamine]
protective effect against radiation-induced oxidative changes to the rat urinary bladder (rat urinary bladder): protective effect | protective effect on the damage caused by subsequent ex vivo radiation exposure of lymphocytes (lymphocytes): protective effect
